In patent publication US20200163954A1 (Exelixis, Inc., priority 2014, published 2020):
Like-named read-outs stand apart in the source and are kept apart here.

How the values were obtained:
[1] = PK parameters of cabozantinib and measured metabolites in human subjects; format: in vivo; details: for AUC(0-inf) / Cmax / Tmax / AUC(0-t) / half-life: human, plasma, oral, 140 mg/day; for half-life: read-out: t1/2, apparent terminal elimination half-life (converted)
[2] = target: T1, Flt-4 (Homo sapiens, UniProt P35916); assay: Kinase activity (EMD Millipore Kinase Profiler), Flt-4; format: biochemical; details: class symbol; read-out: Flt-4 Std (IC50)
T1 construct: purchased EMD Millipore (Kinase Profiler service)
T1 sequence (P35916 25-1363): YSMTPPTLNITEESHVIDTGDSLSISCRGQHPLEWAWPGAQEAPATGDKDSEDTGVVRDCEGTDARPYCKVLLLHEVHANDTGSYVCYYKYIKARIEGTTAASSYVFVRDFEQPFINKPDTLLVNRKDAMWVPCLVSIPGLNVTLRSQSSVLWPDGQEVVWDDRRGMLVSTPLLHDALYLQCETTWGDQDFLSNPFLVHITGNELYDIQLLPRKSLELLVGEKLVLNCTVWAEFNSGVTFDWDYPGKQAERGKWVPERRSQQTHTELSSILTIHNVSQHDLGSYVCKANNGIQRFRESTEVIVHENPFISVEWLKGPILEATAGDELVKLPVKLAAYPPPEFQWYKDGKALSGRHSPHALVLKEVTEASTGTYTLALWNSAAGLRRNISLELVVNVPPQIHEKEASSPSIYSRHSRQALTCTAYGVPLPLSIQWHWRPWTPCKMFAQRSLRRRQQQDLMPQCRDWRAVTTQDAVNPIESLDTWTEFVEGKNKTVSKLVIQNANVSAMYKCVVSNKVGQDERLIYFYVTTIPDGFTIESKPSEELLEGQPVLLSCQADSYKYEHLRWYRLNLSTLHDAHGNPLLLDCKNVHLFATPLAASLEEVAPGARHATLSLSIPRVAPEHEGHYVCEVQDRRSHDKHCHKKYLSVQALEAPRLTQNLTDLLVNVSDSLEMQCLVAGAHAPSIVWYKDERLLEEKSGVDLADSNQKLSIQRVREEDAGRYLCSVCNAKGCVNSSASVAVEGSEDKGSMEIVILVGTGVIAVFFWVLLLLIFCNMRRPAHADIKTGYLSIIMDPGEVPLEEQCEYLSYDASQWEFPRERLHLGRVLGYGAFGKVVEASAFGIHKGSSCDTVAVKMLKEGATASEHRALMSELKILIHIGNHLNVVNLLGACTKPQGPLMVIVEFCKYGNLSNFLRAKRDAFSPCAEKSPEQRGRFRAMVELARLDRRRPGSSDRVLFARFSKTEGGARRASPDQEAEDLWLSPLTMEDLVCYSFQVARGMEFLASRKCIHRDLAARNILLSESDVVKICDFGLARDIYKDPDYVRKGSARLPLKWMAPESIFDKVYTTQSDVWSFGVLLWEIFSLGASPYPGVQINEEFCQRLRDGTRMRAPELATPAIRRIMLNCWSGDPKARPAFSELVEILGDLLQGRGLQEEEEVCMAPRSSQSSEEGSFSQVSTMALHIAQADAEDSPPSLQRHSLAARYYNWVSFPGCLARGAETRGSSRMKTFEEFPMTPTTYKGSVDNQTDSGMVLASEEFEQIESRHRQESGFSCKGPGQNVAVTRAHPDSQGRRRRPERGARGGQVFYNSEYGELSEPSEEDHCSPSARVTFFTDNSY

[3] = Metabolite profiling in human plasma, urine and feces (mass balance study, [14C] cabozantinib); format: in vivo; details: for Presence in pooled fecal sample, 0-72 hours post dose / Presence in pooled fecal sample, 144-192 hours post dose: human feces; for Peak on plasma radio-chromatograms: human plasma, one subject, single 175 mg oral dose of cabozantinib (L-malate salt) with [14C] cabozantinib
Experimental: The objective of this study was to profile and identify metabolites of cabozantinib in human plasma, urine, and feces.
The plasma, urine, and fecal samples were collected from the 8 subjects for the metabolite profiling.
All samples were shipped to QPS LLC (Newark, Del.) and stored at −70° C. HPLC/tandem MS coupled with a radio flow-through detector (RFD) was used for metabolite profiling and identification for samples with sufficient levels of radioactivity.
HPLC fraction collection followed by counting with TopCount NXT™ was used for radioquantitation of plasma samples with sufficient levels of radioactivity. […] HPLC Method 1 was used for the analysis of pooled urine and fecal samples and individual plasma samples from different time points. […] HPLC Method 3 was used for pooled plasma samples.
For the investigation of co-eluting metabolites, nonradiolabeled plasma samples of six subjects were pooled, processed, and analyzed for pre-dose, 1-7, 8-96, and 120-336 hours post-dose. […] [^14C]
Radiolabeled and non-radiolabeled plasma samples were extracted employing the same method, using 1.0-2 mL plasma samples, depending on the volume available and radioactivity level of the samples. The supernatants were evaporated to dryness under a stream of nitrogen in an ambient water bath, and the residues were reconstituted in 0.35-0.5 mL of MeOH:ACN:water (10:20:70, v/v/v). The reconstituted samples were centrifuged at 15,000 rpm for 10 minutes. Aliquots of the supernatants were injected onto the HPLC system for analysis.
The radioactivity in pooled urine and reconstituted solution was counted using LSC, and the reconstitution recovery calculated. […] Each pooled urine sample was lyophilized, the residue was reconstituted in water:ACN:FA (80:20:0.1, v/v/v), and the reconstituted sample was centrifuged at 15,000 rpm for 10 min before analysis.
The supernatants were dried under a nitrogen stream, and the residues were reconstituted in water:ACN:FA (80:20:0.1, v/v/v). The reconstituted samples were centrifuged at 15,000 rpm for 10 min before analysis.
The system for metabolite profiling and identification (HPLC/MS/RFD) consisted of a HTC PAL autosampler, a Surveyor HPLC pump, a LTQ linear ion trap mass spectrometer, and a β-RAM Model 3 RFD. The data obtained by mass spectrometry and RFD were processed by Xcalibur and Laura Lite 3 software, respectively. The HPLC eluent was split between the RFD and mass spectrometer with a ratio of 3 to 1. The following are the summary of the conditions for HPLC, mass spectrometer, and RFD.
For plasma samples, percent of total radioactivity in the sample for each peak at each time point was calculated and converted to ng/mL.

[4] = target: T2, c-Met (Homo sapiens, UniProt P08581); assay: Kinase activity (EMD Millipore Kinase Profiler), c-Met; format: biochemical; details: class symbol; read-out: c-Met Std (IC50)
T2 construct: purchased EMD Millipore (Kinase Profiler service)
T2 sequence (P08581 25-1390): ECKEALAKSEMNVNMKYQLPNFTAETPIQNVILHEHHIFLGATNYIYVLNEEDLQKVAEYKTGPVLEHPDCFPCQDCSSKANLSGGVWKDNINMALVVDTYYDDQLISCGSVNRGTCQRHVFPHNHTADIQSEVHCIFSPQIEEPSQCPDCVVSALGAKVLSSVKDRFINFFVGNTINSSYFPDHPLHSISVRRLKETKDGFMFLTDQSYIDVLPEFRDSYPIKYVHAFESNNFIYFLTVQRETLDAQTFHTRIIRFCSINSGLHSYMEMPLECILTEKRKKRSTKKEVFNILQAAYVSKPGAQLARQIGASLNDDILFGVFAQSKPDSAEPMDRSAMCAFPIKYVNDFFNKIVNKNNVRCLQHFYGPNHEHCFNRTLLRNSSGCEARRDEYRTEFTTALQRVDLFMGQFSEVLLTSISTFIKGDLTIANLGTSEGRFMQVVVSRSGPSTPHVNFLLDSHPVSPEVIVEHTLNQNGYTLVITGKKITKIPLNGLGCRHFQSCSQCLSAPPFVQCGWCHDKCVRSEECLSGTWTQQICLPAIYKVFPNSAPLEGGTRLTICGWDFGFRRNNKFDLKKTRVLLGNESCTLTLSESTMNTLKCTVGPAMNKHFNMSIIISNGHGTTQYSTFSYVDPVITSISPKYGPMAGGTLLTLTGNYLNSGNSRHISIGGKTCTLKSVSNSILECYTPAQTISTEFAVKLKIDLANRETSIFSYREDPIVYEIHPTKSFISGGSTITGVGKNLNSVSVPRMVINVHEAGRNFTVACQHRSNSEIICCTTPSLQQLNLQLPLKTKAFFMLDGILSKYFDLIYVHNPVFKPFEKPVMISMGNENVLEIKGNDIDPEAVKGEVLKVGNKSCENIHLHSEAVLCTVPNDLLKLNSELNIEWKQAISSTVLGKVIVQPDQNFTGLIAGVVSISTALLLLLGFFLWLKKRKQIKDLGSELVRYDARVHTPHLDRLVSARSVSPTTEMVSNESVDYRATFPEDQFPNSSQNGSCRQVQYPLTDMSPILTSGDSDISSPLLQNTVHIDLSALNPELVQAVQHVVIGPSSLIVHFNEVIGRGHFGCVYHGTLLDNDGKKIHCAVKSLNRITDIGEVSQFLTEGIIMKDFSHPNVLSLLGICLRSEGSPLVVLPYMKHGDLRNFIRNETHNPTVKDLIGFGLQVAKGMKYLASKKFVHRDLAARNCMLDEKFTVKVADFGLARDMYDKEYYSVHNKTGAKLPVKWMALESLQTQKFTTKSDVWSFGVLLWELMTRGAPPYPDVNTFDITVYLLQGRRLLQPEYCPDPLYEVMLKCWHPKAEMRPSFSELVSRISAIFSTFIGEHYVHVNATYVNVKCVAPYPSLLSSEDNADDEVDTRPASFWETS

[5] = target: T3, KDR (Homo sapiens, UniProt P35968); assay: Kinase activity (EMD Millipore Kinase Profiler), KDR; format: biochemical; details: class symbol; read-out: KDR Std (IC50)
T3 construct: purchased EMD Millipore (Kinase Profiler service)
T3 sequence (P35968 20-1356): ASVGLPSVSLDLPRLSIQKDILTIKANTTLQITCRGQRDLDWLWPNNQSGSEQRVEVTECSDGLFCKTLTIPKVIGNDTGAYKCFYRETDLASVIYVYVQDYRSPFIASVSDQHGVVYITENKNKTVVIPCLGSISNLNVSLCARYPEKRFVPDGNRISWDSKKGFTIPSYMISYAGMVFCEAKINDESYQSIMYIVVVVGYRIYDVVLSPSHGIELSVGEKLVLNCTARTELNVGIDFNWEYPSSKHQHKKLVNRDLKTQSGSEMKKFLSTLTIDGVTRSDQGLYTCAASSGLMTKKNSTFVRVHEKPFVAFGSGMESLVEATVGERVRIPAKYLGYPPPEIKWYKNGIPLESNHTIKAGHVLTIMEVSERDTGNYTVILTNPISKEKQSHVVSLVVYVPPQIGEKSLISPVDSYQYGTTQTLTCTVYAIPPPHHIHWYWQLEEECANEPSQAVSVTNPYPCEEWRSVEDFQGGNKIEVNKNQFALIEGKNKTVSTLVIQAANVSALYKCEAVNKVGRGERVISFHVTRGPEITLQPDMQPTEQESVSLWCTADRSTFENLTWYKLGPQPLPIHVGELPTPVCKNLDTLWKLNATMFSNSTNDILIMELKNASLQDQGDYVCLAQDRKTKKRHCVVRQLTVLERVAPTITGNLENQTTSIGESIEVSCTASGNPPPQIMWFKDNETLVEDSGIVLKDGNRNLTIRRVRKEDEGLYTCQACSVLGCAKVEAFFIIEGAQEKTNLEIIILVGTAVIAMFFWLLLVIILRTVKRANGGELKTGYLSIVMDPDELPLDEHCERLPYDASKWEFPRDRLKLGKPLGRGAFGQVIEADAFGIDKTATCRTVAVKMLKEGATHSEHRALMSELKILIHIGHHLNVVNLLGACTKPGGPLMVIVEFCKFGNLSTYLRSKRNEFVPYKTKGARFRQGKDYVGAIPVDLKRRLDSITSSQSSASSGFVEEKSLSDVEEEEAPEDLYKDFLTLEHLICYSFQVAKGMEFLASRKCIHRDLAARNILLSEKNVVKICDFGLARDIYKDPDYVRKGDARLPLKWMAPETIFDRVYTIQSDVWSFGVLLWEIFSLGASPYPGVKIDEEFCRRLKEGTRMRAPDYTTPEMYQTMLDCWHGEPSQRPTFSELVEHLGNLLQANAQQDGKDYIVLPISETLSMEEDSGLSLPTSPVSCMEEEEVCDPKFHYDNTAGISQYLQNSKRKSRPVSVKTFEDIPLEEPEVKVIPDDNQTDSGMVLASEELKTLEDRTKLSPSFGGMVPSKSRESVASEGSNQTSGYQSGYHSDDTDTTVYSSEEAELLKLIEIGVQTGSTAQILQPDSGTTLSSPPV

[6] = target: T4, Flt-3 (Homo sapiens, UniProt P36888); assay: Kinase activity (EMD Millipore Kinase Profiler), Flt-3; format: biochemical; details: class symbol; read-out: Flt-3 Std (IC50)
T4 construct: purchased EMD Millipore (Kinase Profiler service)
T4 sequence (P36888 27-993): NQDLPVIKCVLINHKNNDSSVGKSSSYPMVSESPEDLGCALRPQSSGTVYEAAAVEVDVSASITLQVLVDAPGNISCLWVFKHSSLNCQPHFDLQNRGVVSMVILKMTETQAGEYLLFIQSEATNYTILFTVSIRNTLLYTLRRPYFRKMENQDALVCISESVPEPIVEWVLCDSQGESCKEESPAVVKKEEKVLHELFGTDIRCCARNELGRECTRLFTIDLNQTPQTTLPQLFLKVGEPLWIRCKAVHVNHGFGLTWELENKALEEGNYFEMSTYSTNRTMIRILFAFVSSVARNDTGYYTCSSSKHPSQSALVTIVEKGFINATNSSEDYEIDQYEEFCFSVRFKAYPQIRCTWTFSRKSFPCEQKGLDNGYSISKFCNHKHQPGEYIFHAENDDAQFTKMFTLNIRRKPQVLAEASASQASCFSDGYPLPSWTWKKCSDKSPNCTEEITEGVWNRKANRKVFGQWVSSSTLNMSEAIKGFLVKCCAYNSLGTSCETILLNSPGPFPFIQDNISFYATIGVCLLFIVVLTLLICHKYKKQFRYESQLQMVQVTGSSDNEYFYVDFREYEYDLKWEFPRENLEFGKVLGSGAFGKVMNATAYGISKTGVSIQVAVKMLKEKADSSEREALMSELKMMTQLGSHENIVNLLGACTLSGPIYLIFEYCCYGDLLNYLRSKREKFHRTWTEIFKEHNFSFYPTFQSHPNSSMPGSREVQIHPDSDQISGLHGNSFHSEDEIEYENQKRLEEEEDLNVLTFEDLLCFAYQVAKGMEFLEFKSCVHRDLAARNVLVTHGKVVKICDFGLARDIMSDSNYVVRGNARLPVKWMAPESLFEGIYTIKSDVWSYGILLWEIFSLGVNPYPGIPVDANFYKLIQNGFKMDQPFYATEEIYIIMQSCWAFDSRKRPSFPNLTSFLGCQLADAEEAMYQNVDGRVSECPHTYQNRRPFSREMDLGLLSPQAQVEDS

[7] = eight human subjects, cabozantinib 140 mg/day, time zero to 24 hours post dose, read-out: AUC0-24
[8] = eight human subjects, cabozantinib 140 mg/day, time zero to 72 hours post dose, read-out: AUC0-72
[9] = eight human subjects, cabozantinib 140 mg/day, time zero to last measurable concentration, read-out: AUC0-t
[10] = HPLC Method 1, single 175 mg oral dose
[11] = human urine, HPLC Method 1, single 175 mg oral dose

COc1cc2nccc(Oc3ccc(NC(=O)C4(C(=O)Nc5ccc(F)cc5)CC4)cc3)c2cc1OC [Cabozantinib, N-(4-{[6,7-bis(methyloxy)quinolin-4-yl]oxy}phenyl)-N′-(4-fluorophenyl)cyclopropane-1,1-dicarboxamide, reference compound]
kel, apparent terminal elimination rate constant ([1]; eight human subjects, cabozantinib 140 mg/day): 0.00712 ± 0.001 h⁻¹ | AUC(0-inf) [1]: 68000 ± 6910 ng·h/mL | Cmax [1]: 1250 ng/mL | Tmax [1]: 1.49 h | AUC(0-t) [1, 7]: 14300 ± 2600 ng·h/mL | AUC(0-t) [1, 8]: 35000 ± 6770 ng·h/mL | AUC(0-t) [1, 9]: 67200 ± 6880 ng·h/mL | IC50 [2]: < 50 nM | Presence in pooled fecal sample, 0-72 hours post dose [3, 10]: observed | Peak on plasma radio-chromatograms [3]: major peaks | Presence in urine samples ([3]; human urine, all samples, single 175 mg oral dose): not observed

COc1cc2nccc(Oc3ccc(NC(=O)C4(C(=O)O)CC4)cc3)c2cc1OC [drawing 45]
AUC(0-inf) [1]: 6770 ng·h/mL | Cmax [1]: 52.9 ng/mL | Tmax [1]: 19 h | AUC(0-t) [1, 7]: 1080 ng·h/mL | AUC(0-t) [1, 8]: 3120 ng·h/mL | AUC(0-t) [1, 9]: 6540 ng·h/mL | half-life [1]: 3.83 days

COc1cc2nccc(Oc3ccc(NC(=O)C4(C(=O)Nc5ccc(F)cc5O)CC4)cc3)c2cc1OC [Compound 16]
IC50 [4]: < 50 nM | IC50 [5]: < 50 nM | IC50 [6]: < 50 nM | Presence in pooled fecal sample, 0-72 hours post dose [3, 10]: observed | Presence in pooled fecal sample, 144-192 hours post dose [3, 10]: observed

COc1cc2nccc(Oc3ccc(N)cc3)c2cc1O [Compound 1]
Presence in pooled urine sample, 0-72 hours post dose [3, 11]: observed | Presence in pooled urine sample, 144-192 hours post dose [3, 11]: observed | Presence in pooled urine sample, 288-336 hours post dose [3, 11]: detected

COc1cc2nccc(Oc3ccc(NC(=O)C4(C(=O)O)CC4)cc3)c2cc1OC [Compound 7, 1-[4-(6,7-Dimethoxy-quinolin-4-yloxy)-phenylcarbamoyl]-cyclopropane carboxylic Acid]
Presence in pooled fecal sample, 0-72 hours post dose [3, 10]: observed | Presence in pooled fecal sample, 144-192 hours post dose [3, 10]: observed | Peak on plasma radio-chromatograms [3]: one of the minor peaks | Presence in pooled urine sample, 0-72 hours post dose [3, 11]: observed | Presence in pooled urine sample, 144-192 hours post dose [3, 11]: observed

COc1cc2nccc(Oc3ccc(NC(=O)C4(C(=O)Nc5ccc(F)c(O)c5)CC4)cc3)c2cc1OC [Compound 13]
IC50 [4]: < 50 nM | IC50 [5]: < 50 nM | IC50 [6]: < 50 nM

COc1cc2nccc(Oc3ccc(NC(=O)C4(C(=O)Nc5ccc(F)cc5OS(=O)(=O)O)CC4)cc3)c2cc1OC [drawing 47]
AUC(0-inf) [1]: 29500 ng·h/mL | Cmax [1]: 236 ng/mL | Tmax [1]: 24 h | AUC(0-t) [1, 7]: 3970 ng·h/mL | AUC(0-t) [1, 8]: 12600 ng·h/mL | AUC(0-t) [1, 9]: 28900 ng·h/mL | half-life [1]: 3.58 days

COc1cc2c(Oc3ccc(NC(=O)C4(C(=O)Nc5ccc(F)cc5)CC4)cc3)cc[n+]([O-])c2cc1OC [drawing 46]
AUC(0-inf) [1]: 10300 ng·h/mL | Cmax [1]: 118 ng/mL | Tmax [1]: 13.5 h | AUC(0-t) [1, 7]: 2030 ng·h/mL | AUC(0-t) [1, 8]: 5610 ng·h/mL | AUC(0-t) [1, 9]: 10100 ng·h/mL | half-life [1]: 3.72 days

COc1cc2c(Oc3ccc(NC(=O)C4(C(=O)Nc5ccc(F)cc5)CC4)cc3)cc[n+]([O-])c2cc1OC [Compound 19, Cabozantinib N-Oxide]
Peak on plasma radio-chromatograms [3]: major peaks | Presence in pooled urine sample, 0-72 hours post dose [3, 11]: observed
